{"source": "paper PMC5607274", "about": "“An iterative compound screening contest method for identifying target protein inhibitors using the tyrosine-protein kinase Yes” (Scientific Reports, 2017)"}
{"biological_target": "T1, human recombinant Yes [a.a. 2–543 (end)] (Homo sapiens, UniProt P07947)", "T1 construct": "human recombinant Yes [a.a; 2–543 (end)]; purchased BPS Bioscience 40488", "T1 sequence (P07947 2-543)": "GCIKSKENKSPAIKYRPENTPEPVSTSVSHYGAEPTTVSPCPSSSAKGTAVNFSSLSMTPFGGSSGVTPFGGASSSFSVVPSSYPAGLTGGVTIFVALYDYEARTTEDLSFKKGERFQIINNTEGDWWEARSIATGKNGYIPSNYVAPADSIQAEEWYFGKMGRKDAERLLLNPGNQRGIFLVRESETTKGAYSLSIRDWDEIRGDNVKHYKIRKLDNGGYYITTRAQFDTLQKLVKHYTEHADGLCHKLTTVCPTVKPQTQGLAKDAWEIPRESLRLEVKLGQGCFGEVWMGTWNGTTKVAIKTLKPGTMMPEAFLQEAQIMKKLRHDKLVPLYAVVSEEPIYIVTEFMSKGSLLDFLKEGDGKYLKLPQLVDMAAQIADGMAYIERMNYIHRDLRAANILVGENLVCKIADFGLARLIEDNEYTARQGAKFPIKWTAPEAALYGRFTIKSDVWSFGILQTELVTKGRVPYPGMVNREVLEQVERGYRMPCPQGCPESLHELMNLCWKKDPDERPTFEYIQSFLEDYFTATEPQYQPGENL", "assay": "ADP-Glo kinase assay, inhibition rates of Yes phosphorylation activity (first and second screening)", "assay_type": "biochemical", "conditions": "first screening; mean of n = 4 wells; 10 μmol L−1 compound", "procedure": "All inhibitory assays of the phosphorylation activity of Yes were performed in accordance with the Promega Technical Manual for the ADP-Glo™ Kinase Assay (Fitchburg, WI, USA. Catalog number: V9102). The human recombinant Yes [a.a. 2–543 (end)] was purchased from BPS Bioscience (catalog number: 40488). The details of the assay protocol and reagent information are given elsewhere.\nThe screening was conducted in three steps consisting of the first screening, the second screening, and the IC50 determination, as can be illustrated in Fig. 1b. First, we determined the inhibition rates of the 1,991 compounds. Each compound was placed in 4 wells of a 384-well plate. In total, 80 compounds were assayed on one plate and the other wells were used for positive and negative controls. The compounds were randomly placed on plates so that compounds proposed by one group were not placed on a plate together. A mean of four inhibition rates for each compound was compared to criteria for the first screening. […] Second, the inhibition rates of the screened compounds were determined on one plate using the same procedure of the first screening, where compounds were dissolved from fresh powder. […] Screened compounds were then evaluated for their IC50 values.", "units": {"First screening IR (inhibition rate)": "%"}}
{"smiles": "Cl.N#Cc1ccc(-c2cc(-c3ccccc3Cl)c3cc(Cl)ccc3n2)cc1", "note": "[Compound Z48951737]", "First screening IR (inhibition rate)": 1}
{"smiles": "COc1cccc(/C=C2\\CCCc3c2nc2ccccc2c3C(=O)O)c1", "note": "[Compound Z46035772]", "First screening IR (inhibition rate)": 11}
{"smiles": "CC(C)(C)c1cc(-n2c(-c3cccnc3)nc3cc4c(cc32)OCCO4)cc(C(C)(C)C)c1O", "note": "[Compound Z56793119]", "First screening IR (inhibition rate)": 6}
{"smiles": "CC(Sc1nnc(-c2c[nH]c3ccccc23)n1CC1CCCO1)C(=O)Nc1ccc(N(C)C)cc1", "note": "(centres unmarked) [Compound Z18647898]", "First screening IR (inhibition rate)": 0}
{"smiles": "Cc1cccc(OCC(=O)Nc2sc3c(c2C(N)=O)CCC3)c1", "note": "[Compound Z26345967]", "First screening IR (inhibition rate)": 18}
{"smiles": "CN(Cc1cnn(-c2ccccc2)c1)C(=O)c1ccc(Cl)c(S(=O)(=O)N2CCCCCC2)c1", "note": "[Compound Z115152726]", "First screening IR (inhibition rate)": 4}
{"smiles": "Cl.Fc1ccc(-c2cc(-c3ccccc3)c3cc(Cl)ccc3n2)cc1", "note": "[Compound Z48950786]", "First screening IR (inhibition rate)": -4}
{"smiles": "Cc1n[nH]c(C)c1C(C)C(=O)NCC(c1cccc(Cl)c1)N1CCCC1", "note": "(centres unmarked) [Compound Z1172045589]", "First screening IR (inhibition rate)": 9}
{"smiles": "O=c1[nH]ncc(NCc2ccc(Cn3cnc4ccccc43)cc2)c1Cl", "note": "[Compound Z951371090]", "First screening IR (inhibition rate)": 5}
{"smiles": "CC1C/C(=C/c2ccc(Cl)c([N+](=O)[O-])c2)c2nc3ccccc3c(C(=O)O)c2C1", "note": "(centres unmarked) [Compound Z46107857]", "First screening IR (inhibition rate)": 11}
{"smiles": "Brc1cccc(C2C=C(c3ccccc3)Nc3ncnn32)c1", "note": "(centres unmarked) [Compound Z56850769]", "First screening IR (inhibition rate)": 9}
{"smiles": "CCN(CC)S(=O)(=O)c1c[nH]c(C(=O)NCc2nc(C)cs2)c1", "note": "[Compound Z225896678]", "First screening IR (inhibition rate)": 9}
{"smiles": "O=c1c2ccc(C(F)(F)F)cc2nc2n1CC/C2=C/c1cccnc1", "note": "[Compound Z45931417]", "First screening IR (inhibition rate)": 0}
{"smiles": "Cc1ccc(Oc2ccc(NC(=O)N3CCNC(=O)C3)cn2)cc1", "note": "[Compound Z435639920]", "First screening IR (inhibition rate)": -14}
{"smiles": "Cc1ccn2c(/C=C/C(=O)c3cccc(N4CCOC4=O)c3)cnc2c1", "note": "[Compound Z1263913876]", "First screening IR (inhibition rate)": 44}
{"smiles": "CC(CNc1ncnc2c1cnn2CCO)Cn1cccn1", "note": "(centres unmarked) [Compound Z990883644]", "First screening IR (inhibition rate)": 11}
{"smiles": "O=C(NCc1cn2ccsc2n1)C1CC1c1ccccc1C(F)(F)F", "note": "(centres unmarked) [Compound Z333170264]", "First screening IR (inhibition rate)": -2}
{"smiles": "Cc1cn2nc(NCc3ccc(N4CCNC(=O)C4)cc3)sc2n1", "note": "[Compound Z397897560]", "First screening IR (inhibition rate)": 39}
{"smiles": "Cc1ccccc1Nc1nc(N)nc(CSc2nnc(NCc3ccccc3)s2)n1", "note": "[Compound Z19326161]", "First screening IR (inhibition rate)": 1}
{"smiles": "O=C(NC(C1CC1)C1CC1)C1CCCN1c1ncnc2sccc12", "note": "(centres unmarked) [Compound Z1190394303]", "First screening IR (inhibition rate)": 6}
{"smiles": "CC(C)CNC(=O)CN1CCN(c2nc(-c3ccccn3)nc3scc(-c4ccccc4)c23)CC1", "note": "[Compound Z196146788]", "First screening IR (inhibition rate)": 2}
{"smiles": "Cc1cc(C)c(NC(=O)c2cn3c4c(c(N5CCN(C)CC5)c(F)cc4c2=O)OCC3C)c(C)c1", "note": "(centres unmarked) [Compound Z28129480]", "First screening IR (inhibition rate)": 9}
{"smiles": "CN(c1ccc(OC(=O)C23CC4CC(CC(Cl)(C4)C2)C3)cc1)S(=O)(=O)c1ccccc1F", "note": "[Compound Z29631119]", "First screening IR (inhibition rate)": 5}
{"smiles": "N#Cc1cnc(N2CCN(S(=O)(=O)c3cc(Cl)ccc3Cl)CC2)c(Cl)c1", "note": "[Compound Z1039059796]", "First screening IR (inhibition rate)": 0}
{"smiles": "Oc1cncc(/C=C/c2nc(-c3ccc(Oc4ccc(F)cc4)nc3)no2)c1", "note": "[Compound Z1642148338]", "First screening IR (inhibition rate)": -13}
{"smiles": "COc1ccc(-c2noc(/C=C/c3cncc(O)c3)n2)cc1", "note": "[Compound Z1642148255]", "First screening IR (inhibition rate)": 3}
{"smiles": "O=S(=O)(c1c(Cl)cccc1Cl)N1CCN(Cc2nc(-c3cccc(Cl)c3)no2)CC1", "note": "[Compound Z90231169]", "First screening IR (inhibition rate)": -8}
{"smiles": "NCCN1C(=O)C2C3C=CC(C3)C2C1=O", "note": "(centres unmarked) [Compound Z803067872]", "First screening IR (inhibition rate)": 7}
{"smiles": "NC(=O)C1CCN(C(=O)CNc2cc(Cl)ccc2Sc2ccc(F)cc2)CC1", "note": "[Compound Z140497072]", "First screening IR (inhibition rate)": -9}
{"smiles": "CC(C)c1cccc(NS(=O)(=O)c2ccc(-n3ncc(Cl)c(Cl)c3=O)cc2)c1", "note": "[Compound Z286115224]", "First screening IR (inhibition rate)": 6}
{"smiles": "NS(=O)(=O)c1ccc(CCNC(=O)CSc2nnc(-c3ccccc3F)n2CCc2ccccc2)cc1", "note": "[Compound Z16426742]", "First screening IR (inhibition rate)": -1}
{"smiles": "O=c1[nH]c2cc(Cl)ccc2c(-c2ccccc2)c1CN1CCCCC1", "note": "[Compound Z1980444406]", "First screening IR (inhibition rate)": 1}
{"smiles": "NC(=O)C(Nc1cnn(Cc2ccccc2)c1)c1ccc(F)cc1", "note": "(centres unmarked) [Compound Z1686719326]", "First screening IR (inhibition rate)": 0}
{"smiles": "COc1cccc(OCCN2CCN(c3cc(C)nc4c(-c5ccc(Cl)cc5)c(C)nn34)CC2)c1", "note": "[Compound Z435980234]", "First screening IR (inhibition rate)": 3}
{"smiles": "COc1ccc(S(=O)(=O)N[C@@H](C)C(=O)N2CC=C(c3c(OC)cc(OC)cc3OC)CC2)cc1", "note": "[Compound Z203177000]", "First screening IR (inhibition rate)": 0}
{"smiles": "CC(=O)Nc1ccc(Nc2cc(C(C)(C)C)nc3c(-c4ccccc4Cl)c(C)nn23)cc1", "note": "[Compound Z1172235206]", "First screening IR (inhibition rate)": 6}
{"smiles": "CCc1c(C(=O)CN2CCCC2c2ccsc2)[nH]c(C)c1C(C)=O", "note": "(centres unmarked) [Compound Z839968520]", "First screening IR (inhibition rate)": 0}
{"smiles": "Cc1c(C(=O)Nc2ccc3c(ccn3CCN3CCOCC3)c2)nnn1-c1ccc(F)cc1", "note": "[Compound Z961847812]", "First screening IR (inhibition rate)": -11}
{"smiles": "CCCN1CCN(c2ccc(Nc3ccc4nnnn4n3)cc2Cl)CC1", "note": "[Compound Z815791244]", "First screening IR (inhibition rate)": -24}
{"smiles": "CCCNC(=O)CN(CCC)C(=O)c1cc(-c2ccccc2)nc2c1cnn2CC", "note": "[Compound Z729700802]", "First screening IR (inhibition rate)": 0}
{"smiles": "Cc1ccc(S(=O)(=O)N(C)C2(C)CCS(=O)(=O)C2)cc1", "note": "(centres unmarked) [Compound Z131022526]", "First screening IR (inhibition rate)": 3}
{"smiles": "N#C/C(=C(/O)CN1CCN(S(=O)(=O)c2ccccc2C#N)CC1)c1nc2ccccc2[nH]1", "note": "[Compound Z48805202]", "First screening IR (inhibition rate)": -4}
{"smiles": "CS(=O)(=O)C1(S(C)(=O)=O)CCCCC1", "note": "[Compound Z56758188]", "First screening IR (inhibition rate)": 14}
{"smiles": "CC(=O)Nc1ccc(/C=C2/CC(C(C)(C)C)Cc3c2nc2ccccc2c3C(=O)O)cc1", "note": "(centres unmarked) [Compound Z46108738]", "First screening IR (inhibition rate)": 26}
{"smiles": "CCOC(=O)c1sc(-c2cccc([N+](=O)[O-])c2)cc1NC(=O)CCc1ccccc1", "note": "[Compound Z29956667]", "First screening IR (inhibition rate)": -1}
{"smiles": "Cc1cccc(N2CCN(C(=O)C3CCN(C(=O)C4CC4)CC3)CC2)c1C", "note": "[Compound Z26849648]", "First screening IR (inhibition rate)": -2}
{"smiles": "Cc1ccc([N+](=O)[O-])c(N2CCC(NCCO)CC2)c1", "note": "[Compound Z1576995201]", "First screening IR (inhibition rate)": -9}
